Test results taken from patent US12595253B2, “Benzamides of pyrazolylamino-pyrimidinyl derivatives, and compositions and methods thereof” (LYNK PHARMACEUTICALS CO. LTD., priority 2019, dated 2026).

Experiments:
Assay type in all cases: biochemical
[1] = molecular target: T1, JAK1 (Homo sapiens, UniProt P23458); assay: JAK1 microfluidic kinase assay (Caliper EZ Reader II, FAM labeled peptide substrate)
T1 construct: purchased Carna Biosciences
Procedure, shortened: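 Microfluidic mobility-shift assay on Caliper EZ Reader II, FAM-labelled peptide phosphorylation, in 50 mM HEPES, 0.01% Brij35, 10 mM MgCl2, 2 mM DTT, 1% DMSO; enzyme conditions set for 10% substrate conversion.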

[2] = molecular target: T2, JAK2V617F (Homo sapiens, UniProt O60674, V617F); assay: JAK2V617F microfluidic kinase assay (Caliper EZ Reader II, FAM labeled peptide substrate); conditions: JAK2V617F 2.5 nM, 1 mM ATP
T2 construct: purchased Carna Biosciences
T2 sequence (O60674 whole entry V617F): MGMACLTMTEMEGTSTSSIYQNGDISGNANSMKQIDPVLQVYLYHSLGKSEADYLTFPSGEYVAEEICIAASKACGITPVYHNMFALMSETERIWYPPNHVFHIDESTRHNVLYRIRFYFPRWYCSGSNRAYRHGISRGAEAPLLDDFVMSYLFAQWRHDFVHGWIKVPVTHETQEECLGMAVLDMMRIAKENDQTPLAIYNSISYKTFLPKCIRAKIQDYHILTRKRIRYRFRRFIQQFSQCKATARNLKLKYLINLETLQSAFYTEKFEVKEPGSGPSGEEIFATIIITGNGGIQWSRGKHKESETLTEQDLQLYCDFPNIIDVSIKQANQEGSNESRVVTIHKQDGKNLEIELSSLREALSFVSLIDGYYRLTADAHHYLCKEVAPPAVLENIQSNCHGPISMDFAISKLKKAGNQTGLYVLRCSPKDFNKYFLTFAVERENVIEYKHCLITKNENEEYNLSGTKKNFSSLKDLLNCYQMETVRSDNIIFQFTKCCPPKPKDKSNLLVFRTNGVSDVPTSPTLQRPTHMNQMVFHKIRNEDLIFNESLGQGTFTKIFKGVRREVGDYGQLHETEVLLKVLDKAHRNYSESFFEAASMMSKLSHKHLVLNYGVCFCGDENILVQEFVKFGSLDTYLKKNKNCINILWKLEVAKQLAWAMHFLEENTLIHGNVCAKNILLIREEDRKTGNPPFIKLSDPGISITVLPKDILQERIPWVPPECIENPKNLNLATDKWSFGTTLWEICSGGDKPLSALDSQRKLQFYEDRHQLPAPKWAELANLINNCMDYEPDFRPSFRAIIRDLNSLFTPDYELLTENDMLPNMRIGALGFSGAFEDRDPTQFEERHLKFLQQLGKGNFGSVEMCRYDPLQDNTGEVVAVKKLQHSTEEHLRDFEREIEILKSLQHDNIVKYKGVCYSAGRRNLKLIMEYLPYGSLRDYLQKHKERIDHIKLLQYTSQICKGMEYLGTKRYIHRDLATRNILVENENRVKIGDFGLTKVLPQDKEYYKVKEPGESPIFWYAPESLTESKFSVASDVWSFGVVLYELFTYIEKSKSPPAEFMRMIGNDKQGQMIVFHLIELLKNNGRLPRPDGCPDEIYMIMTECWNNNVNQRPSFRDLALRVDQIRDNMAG
Protocol: (§1) Compounds were tested against JAK1, JAK2, JAK2V617F and TYK2. Assay Formats: JAK activity was determined in the reaction buffer 50 mM HEPES, 0.01% Brij35, 10 mM MgCl2, 2 mM DTT by a microfluidic assay. The phosphorylation of a FAM labeled peptide substrate was monitored in the Caliper EZ Reader II (Perkin Elmer). The assay condition for each batch of enzyme (Carna Biosciences) was optimized to obtain 10% conversion rate of peptide substrate. The test compounds were dissolved in DMSO to a stock concentration of 10 mM. 3-fold serially diluted compounds with top concentration of 5 μM were pre-incubated with JAK1, JAK2, JAK2V617F or TYK2 at indicated concentrations for 10 min at ambient temperature. The final DMSO concentration of assay mixture was 1%. […] The reaction was stopped by adding 50 mM EDTA. […] The percent inhibition was calculated by the following formula. % Inhibition=(Conversionmax−Conversionsample)/(Conversionmax−Conversionmin)*100 • Conversionmax means the conversion rate in the positive well without addition of compound • Conversionmin means the conversion rate in the well without addition of enzyme • Conversionsample means the conversion rate of test compounds The dose-response (percent inhibition) curve was plotted and IC50 values were determined by GraphPad software.

[3] = molecular target: T3, JAK2 (Homo sapiens, UniProt O60674); assay: JAK2 microfluidic kinase assay (Caliper EZ Reader II, FAM labeled peptide substrate)
T3 construct: purchased Carna Biosciences
T3 sequence (O60674 whole entry): as the sequence (O60674 whole entry V617F) above, with F617V counted along it
Protocol: as §1

[4] = IC50 JAK1 (5 nM) (1 m MATP), JAK1 5 nM, 1 mM ATP
[5] = IC50 JAK2 ([…]) (1 mM ATP), 1 mM ATP
[6] = IC50 JAK2 ([…]) (Km ATP), Km ATP

T1 sequence (P23458 whole entry): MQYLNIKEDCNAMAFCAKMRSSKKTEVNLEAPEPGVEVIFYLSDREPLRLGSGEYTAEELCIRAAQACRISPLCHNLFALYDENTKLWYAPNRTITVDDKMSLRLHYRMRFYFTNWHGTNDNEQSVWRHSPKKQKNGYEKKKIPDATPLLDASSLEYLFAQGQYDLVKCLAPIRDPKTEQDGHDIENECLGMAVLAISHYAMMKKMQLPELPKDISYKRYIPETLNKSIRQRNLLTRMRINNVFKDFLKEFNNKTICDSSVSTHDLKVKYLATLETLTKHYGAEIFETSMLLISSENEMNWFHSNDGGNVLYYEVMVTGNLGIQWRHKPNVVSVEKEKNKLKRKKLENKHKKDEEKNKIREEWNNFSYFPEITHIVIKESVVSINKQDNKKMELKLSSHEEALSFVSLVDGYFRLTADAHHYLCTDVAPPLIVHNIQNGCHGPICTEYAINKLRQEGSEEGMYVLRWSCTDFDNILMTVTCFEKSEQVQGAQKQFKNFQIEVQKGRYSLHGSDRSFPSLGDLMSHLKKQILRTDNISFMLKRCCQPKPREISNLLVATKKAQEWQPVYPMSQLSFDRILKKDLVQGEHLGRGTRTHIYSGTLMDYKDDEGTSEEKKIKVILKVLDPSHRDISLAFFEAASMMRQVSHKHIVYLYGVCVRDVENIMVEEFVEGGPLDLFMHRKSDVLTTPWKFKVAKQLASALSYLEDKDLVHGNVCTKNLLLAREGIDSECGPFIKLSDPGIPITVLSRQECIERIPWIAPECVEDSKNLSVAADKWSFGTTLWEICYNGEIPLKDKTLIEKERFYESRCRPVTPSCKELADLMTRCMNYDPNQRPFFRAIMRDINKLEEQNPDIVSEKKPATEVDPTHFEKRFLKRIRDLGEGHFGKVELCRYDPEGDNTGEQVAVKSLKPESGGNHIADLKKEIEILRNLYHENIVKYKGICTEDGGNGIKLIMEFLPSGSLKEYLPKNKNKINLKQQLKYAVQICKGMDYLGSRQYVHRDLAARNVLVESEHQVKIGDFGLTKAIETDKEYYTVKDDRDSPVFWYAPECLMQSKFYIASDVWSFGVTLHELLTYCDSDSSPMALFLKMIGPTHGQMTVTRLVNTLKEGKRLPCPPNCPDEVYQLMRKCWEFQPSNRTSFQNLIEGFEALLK

| IC50 [1, 4] [nM] | IC50 [2] [nM] | IC50 [3, 5] [nM] | IC50 [3, 6] [nM] | IC50 ([1]; IC50 JAK1 (10 nM) (Km ATP), JAK1 10 nM, Km ATP) [nM] | Compound |
| --- | --- | --- | --- | --- | --- |
| 37 | 92.3 | 46.4 | 2.1 | – | C[C@@H](C#N)NC(=O)c1ccc(-c2nc(Nc3cnn(C4CC4)c3)ncc2Cl)cc1F [Example 137, (S)-4-(5-Chloro-2-((1-cyclopropyl-1H-pyrazol-4-yl)amino)pyrimidin-4-yl)-N-(1-cyanoethyl)-2-fluorobenzamide] |
| 13.1 | 34.3 | 0.47 | – | – | CO[C@H]1CC[C@@H](n2cc(Nc3ncc(C)c(-c4ccc(C(=O)N[C@@H](C)C#N)cc4)n3)cn2)CC1 [Example 90, N—((S)-1-cyanoethyl)-4-(2-((1-(cis-4-methoxycyclohexyl)-1H-pyrazol-4-yl)amino)-5-methylpyrimidin-4-yl)benzamide] |
| 20.1 | 102 | 44.3 | 1.39 | – | Cc1cnc(Nc2cnn(C3CC3)c2)nc1-c1ccc(C(=O)NCC2(C#N)CC2)cc1 [Example 93, N-((1-cyanocyclopropyl)methyl)-4-(2-((1-cyclopropyl-1H-pyrazol-4-yl)amino)-5-methylpyrimidin-4-yl)benzamide] |
| 19.3 | 73.9 | – | 1.1 | – | Cn1cc(Nc2ncc(Cl)c(-c3ccc(C(=O)NCC(C)(C)C#N)cc3)n2)cn1 [Example 122, 4-(5-Chloro-2-((1-methyl-1H-pyrazol-4-yl)amino)pyrimidin-4-yl)-N-(2-cyano-2-methylpropyl)benzamide] |
| 9 | 0.65 | < 0.25 | – | – | Cc1cnc(Nc2cnn([C@H]3CC[C@H](C#N)CC3)c2)nc1-c1ccc(C(=O)NCC(F)(F)F)cc1 [Example 87, 4-(2-((1-(Trans-4-cyanocyclohexyl)-1H-pyrazol-4-yl)amino)-5-methylpyrimidin4-yl)-N-(2,2,2-trifluoroethyl)benzamide] |
| 34.8 | 71.6 | 41.3 | – | – | C[C@H](C#N)NC(=O)c1ccc(-c2nc(Nc3cnn(C4CC4)c3)ncc2Cl)cc1 [Example 196, (R)-4-(5-chloro-2-((1-cyclopropyl-1H-pyrazol-4-yl)amino)pyrimidin-4-yl)-N-(1-cyanoethyl)benzamide] |
| 4.78 | 10.1 | < 0.25 | – | – | Cc1cnc(Nc2cnn(C3CCCCC3)c2)nc1-c1ccc(C(=O)N[C@@H](C)C#N)cc1 [Example 89, (S)—N-(1-cyanoethyl)-4-(2-((1-cyclohexyl-1H-pyrazol-4-yl)amino)-5-methylpyrimidin-4-yl)benzamide] |
| 235 | 131 | 71.7 | 2.07 | – | Cc1cnc(Nc2cnn(C3CCOCC3)c2)nc1-c1ccc(C(=O)N2CC(C#N)C2)cc1 [Example 31, 1-(4-(5-Methyl-2-((1-(tetrahydro-2H-pyran-4-yl)-1H-pyrazol-4-yl)amino)pyrimidin-4-yl)benzoyl)azetidine-3-carbonitrile] |
| 17.1 | 5.26 | < 0.25 | < 0.25 | – | Cc1cnc(Nc2cnn(C3CCN(C(=O)NC(C)(C)C)CC3)c2)nc1-c1ccc(C(=O)NCC#N)cc1 [Example 3, N-(tert-Butyl)-4-(4-((4-(4-((cyanomethyl)carbamoyl)phenyl)-5-methylpyrimidin-2-yl)amino)-1H-pyrazol-1-yl)piperidine-1-carboxamide] |
| 39.9 | 118 | 49 | 1.6 | – | Cc1cnc(Nc2cnn(C3CC3)c2)nc1-c1ccc(C(=O)N[C@@H](C)C#N)c(F)c1 [Example 129, (S)—N-(1-Cyanoethyl)-4-(2-((1-cyclopropyl-1H-pyrazol-4-yl)amino)-5-methylpyrimidin-4-yl)-2-fluorobenzamide] |
| 14.3 | 4.91 | 1.21 | – | – | Cc1cnc(Nc2cnn([C@H]3CC[C@@H](C#N)CC3)c2)nc1-c1ccc(C(=O)NCC(F)(F)F)cc1 [Example 86, 4-(2-((1-(Cis-4-cyanocyclohexyl)-1H-pyrazol-4-yl)amino)-5-methylpyrimidin-4-yl)-N-(2,2,2-trifluoroethyl)benzamide] |
| 124 | 796 | – | 13.6 | – | Cc1cnc(Nc2cnn(C)c2)nc1-c1ccc(C(=O)N[C@H]2C[C@@H](C#N)C2)cc1 [Example 16, N-((cis)-3-Cyanocyclobutyl)-4-(5-methyl-2-((1-methyl-1H-pyrazol-4-yl)amino)pyrimidin-4-yl)benzamide] |
| 3.68 | 14.1 | 1.68 | – | – | CCn1cc(Nc2ncc(Cl)c(-c3ccc(C(=O)N[C@@H](C)C#N)cc3)n2)cn1 [Example 229, (S)-4-(5-Chloro-2-((1-ethyl-1H-pyrazol-4-yl)amino)pyrimidin-4-yl)-N-(1-cyanoethyl)benzamide] |
| 5.89 | 22 | 0.39 | – | – | CC(C)n1cc(Nc2ncc(Cl)c(-c3ccc(C(=O)N[C@@H](C)C#N)cc3)n2)cn1 [Example 228, (S)-4-(5-Chloro-2-((1-isopropyl-1H-pyrazol-4-yl)amino)pyrimidin-4-yl)-N-(1-cyanoethyl)benzamide] |
| – | 46.1 | 1.59 | 0.43 | 2.37 | Cc1cnc(Nc2cnn(C3CCN(CC(F)(F)F)CC3)c2)nc1-c1ccc(C(=O)NCC#N)cc1 [Example 22, N-(Cyanomethyl)-4-(5-methyl-2-((1-(1-(2,2,2-trifluoroethyl)piperidin-4-yl)-1H-pyrazol-4-yl)amino)pyrimidin-4-yl)benzamide] |
| 15.1 | 6.97 | 0.47 | – | – | Cc1cnc(Nc2cnn(C3CCN(C(=O)C4CC4(F)F)CC3)c2)nc1-c1ccc(C(=O)NCC#N)cc1 (stereo not shown) [Example 145, N-(cyanomethyl)-4-(2-((1-(1-(2,2-difluorocyclopropanecarbonyl)piperidin-4-yl)-1H-pyrazol-4-yl)amino)-5-methylpyrimidin-4-yl)benzamide] |
| 19.1 | 92.3 | 15 | – | – | Cc1cnc(Nc2cnn(CC#N)c2)nc1-c1ccc(C(=O)N[C@@H](C)C#N)cc1 [Example 40, (S)—N-(1-cyanoethyl)-4-(2-((1-(cyanomethyl)-1H-pyrazol-4-yl)amino)-5-methylpyrimidin-4-yl)benzamide] |
| 4.08 | 17.6 | 3.14 | – | – | CCCn1cc(Nc2ncc(Cl)c(-c3ccc(C(=O)N[C@@H](C)C#N)cc3)n2)cn1 [Example 227, (S)-4-(5-Chloro-2-((1-propyl-1H-pyrazol-4-yl)amino)pyrimidin-4-yl)-N-(1-cyanoethyl)benzamide] |
| 20.8 | 2.06 | < 0.25 | < 0.25 | – | Cc1cnc(Nc2cnn(C3CCN(C(=O)C4(C(F)(F)F)CC4)CC3)c2)nc1-c1ccc(C(=O)NCC#N)cc1 [Example 115, N-(Cyanomethyl)-4-(5-methyl-2-((1-(1-(1-(trifluoromethyl)cyclopropanecarbonyl)piperidin-4-yl)-1H-pyrazol-4-yl)amino)pyrimidin-4-yl)benzamide] |
| 24.1 | 36.7 | 4.82 | – | – | Cc1cnc(Nc2cnn(C3CCN(S(C)(=O)=O)CC3)c2)nc1-c1ccc(C(=O)NCC2(C#N)CC2)cc1 [Example 159, N-((1-cyanocyclopropyl)methyl)-4-(5-methyl-2-((1-(1-(methylsulfonyl)piperidin-4-yl)-1H-pyrazol-4-yl)amino)pyrimidin-4-yl)benzamide] |
| 36.6 | 142 | 89.3 | – | – | Cc1cnc(Nc2cnn(C3CC3)c2)nc1-c1ccc(C(=O)N[C@@H](C)C#N)nc1 [Example 164, (S)—N-(1-cyanoethyl)-5-(2-((1-cyclopropyl-1H-pyrazol-4-yl)amino)-5-methylpyrimidin-4-yl)picolinamide] |
